This assay concerns the target T1, Endothelial lipase (Homo sapiens, UniProt Q9Y5X9).
T1 sequence (Q9Y5X9 whole entry): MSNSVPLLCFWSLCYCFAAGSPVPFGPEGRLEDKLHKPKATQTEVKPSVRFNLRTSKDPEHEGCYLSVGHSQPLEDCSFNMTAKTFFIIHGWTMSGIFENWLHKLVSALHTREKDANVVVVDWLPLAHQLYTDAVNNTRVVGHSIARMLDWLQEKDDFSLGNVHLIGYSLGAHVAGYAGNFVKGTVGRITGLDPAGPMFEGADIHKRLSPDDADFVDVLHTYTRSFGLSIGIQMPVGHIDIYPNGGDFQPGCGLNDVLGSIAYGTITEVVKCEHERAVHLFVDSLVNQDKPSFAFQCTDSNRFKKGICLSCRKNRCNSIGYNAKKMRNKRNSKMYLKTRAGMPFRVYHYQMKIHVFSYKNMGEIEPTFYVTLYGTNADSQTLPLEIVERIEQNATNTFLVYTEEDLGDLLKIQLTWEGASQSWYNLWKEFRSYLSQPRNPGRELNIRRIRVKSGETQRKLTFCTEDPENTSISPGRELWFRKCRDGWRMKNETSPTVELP
The assay is described as follows: Enzymatic Assay: Endothelial lipase activity was measured using a fluorescent substrate, A10070, (Invitrogen, CA) doped into an artificial vesicle containing DMPG (Avanti Polar Lipids) as the excipient. Vesicles were prepared by combining 285 uL of 1 mMDMPG in a 1:1 mixture of MeOH and CHCl3 with 15 uL of 1 mM A10070 in a 1:1 mixture of MeOH and CHCl3. The mixture was dried under nitrogen and resuspended in 150 uL of 50 mM HEPES pH 8.0 buffer containing 100 mM NaCl and 0.2 mM EDTA. The sample was allowed to sit at rt for 15 min and then was sonicated 3x4 mins on ice with a Branson Sonicator using duty cycle 1. This preparation provides vesicles with a mole fraction of 0.05 for the FRET substrate.The enzymatic assay was measured using white, opaque 96-well half area plates. Each well contained 60 uL of assay buffer (50 mM HEPES pH 8.0, 50 mM NaCl and 1 mM CaCl2) and 2 ul of a DMSO solution containing compound of interest. Conditioned media obtained from HT-1080 cells, which were transformed by RAGE technology (Athersys) to overexpress endogenous EL, was added and the reaction was allowed to incubate for 20 min at 37deg; C. with gentle agitation. The reaction was started by the addition of 20 uL of a 1:4 dilution of vesicles. The final total reaction volume was 100 uL. The reaction rates were measured on a Gemini plate reader with an excitation wavelength of 488 nm and a emission of 530 nm. Readings were taken every 20 seconds for 10 min with agitation between each reading. The slope of the linear portion of the readout was used to calculate the rate of the reaction. It counts as cell-based.

Usually IC50 stands for the point on the concentration scale where inhibition reaches its midpoint.

As for `CN1CC(C(=O)NCc2ccc(Oc3ccc(Cl)c(Cl)c3)cc2)=C(O)C1=O`, the 50% inhibitory concentration (IC50) is 27 nM.

On to `CC(=O)Nc1ccc(-c2cccc([C@@H](C)NC(=O)C3=C(O)C(=O)N(c4ccc(F)cc4F)C3)c2)cc1`, for which the IC50 is 27.1 nM.

With `CN1CC(C(=O)NCc2ccc(Oc3ccccc3)cc2)=C(O)C1=O`, the half-inhibitory concentration (IC50) is 43 nM.

For `CN1CC(C(=O)NCCCOc2cccc(Oc3ccccc3)c2)=C(O)C1=O`, the IC50 is 22.1 nM.
